According to publication PMC9458111, “New 1,2,3-Triazole-Coumarin-Glycoside Hybrids and Their 1,2,4-Triazolyl Thioglycoside Analogs Targeting Mitochondria Apoptotic Pathway: Synthesis, Anticancer Activity and Docking Simulation” (Molecules, 2022):

What was measured:
[1] = system: human breast cancer (MCF-7 cell lines); test: MTT cytotoxicity assay, MCF-7; format: cell-based; settings: MCF7, 48 h
Protocol: (§1) The synthesized compounds were studied for their cytotoxic activity against several human cancer cell lines, namely human osteosarcoma (HOS cell lines), human breast adenocarcinoma (MDA-MB-231 cell lines), human breast cancer (MCF-7 cell lines), human colorectal adenocarcinoma (Caco-2 cell lines) and human colon cell line (HCT-116 cell lines) using MTT assay at 100 µM, and the results were outlined as shown in Table 1.
(§2) Human osteosarcoma (HOS cell line), human breast adenocarcinoma (MDA-MB-231cell lines), human breast cancer (MCF-7 cell lines), human colorectal adenocarcinoma (Caco2 cell lines), human colon cell line (HCT-116 cell lines), normal human cell lines (BJ-1), and “a telomerase immortalized normal foreskin fibroblast cell line” were obtained from Karolinska Center, Department of Oncology and Pathology, Karolinska Institute and Hospital, Stockholm, Sweden.
(§3) Following culturing for 10 days, the cells were seeded at concentration of 10 × 10^3 cells per well in case of MCF-7 & MDA, 20 × 10^3 cells/well in a fresh complete growth medium in case of HCT-116, Caco2, & HOS and 40 × 10^3 cells/well in case of BJ-1 at 37 °C for 24 h in a water jacketed carbon dioxide incubator. After 48 h’ incubation, the medium was aspirated, and then 40 μl MTT salt (2.5 mg/mL) were added for a further 4 h; 200 μl 10% sodium dodecyl sulphate (SDS) in deionized water were added to each well and incubated overnight at 37 °C. The absorbance was measured at 595 nm with reference 690 nm. Doxorubicin was used as positive control, and 0.5% DMSO was used as negative control. IC50 values were calculated, using a probit analysis, and by utilizing the SPSS computer program (SPSS for Windows, statistical analysis software package/version 9/1989 SPSS Inc., Chicago, IL, USA).

[2] = system: human breast adenocarcinoma (MDA-MB-231 cell lines); test: MTT cytotoxicity assay, MDA-MB-231; format: cell-based; settings: for cytotoxicity at 100 µM: MDA-MB-231, 48 h
Protocol: as §1, §2, §3

[3] = system: human colon cell line (HCT-116 cell lines); test: MTT cytotoxicity assay, HCT-116; format: cell-based; settings: for cytotoxicity at 100 µM: HCT-116, 48 h
Protocol: as §1, §2, §3

[4] = system: human osteosarcoma (HOS cell lines); test: MTT cytotoxicity assay, HOS; format: cell-based; settings: for cytotoxicity at 100 µM: 48 h; for IC50: MTT, 0.78–100 µM, ± SD
Protocol: as §1, §2, §3

[5] = system: human colorectal adenocarcinoma (Caco-2 cell lines); test: MTT cytotoxicity assay, Caco-2; format: cell-based; settings: Caco-2, 48 h
Protocol: as §1, §2, §3

[6] = system: normal human skin cell lines BJ-1; test: Safety on normal human skin cells BJ-1 (MTT); format: cell-based; settings: 100 µM
Protocol: To determine the selectivity and safety, all tested compounds were subjected to an assay for their safety upon normal human skin cell lines BJ-1 at a concentration of 100 µM.
as §2, §3

Row | Structure (SMILES) | melting point | cytotoxicity at 100 µM [1] | cytotoxicity at 100 µM [2] | cytotoxicity at 100 µM [3] | cytotoxicity at 100 µM [4] | cytotoxicity at 100 µM [5] | Toxicity on normal skin cells BJ-1 (in words) [6] | IC50 ([3]; HCT-116, MTT, 0.78–100 µM, ± SD) | IC50 [4] | IC50 ([2]; MDA-MB-231, MTT, 0.78–100 µM, ± SD)
1 | Cn1c(COc2ccc3c(-c4ccccc4)cc(=O)oc3c2)n[nH]c1=S [Compound 1a] | – | 15.6 ± 0.2% | 24.1 ± 1.4% | 16.8 ± 0.1% | 42.5 ± 1.2% | 34.8 ± 1.3% | – | – | – | –
2 | CCn1c(COc2ccc3c(-c4ccccc4)cc(=O)oc3c2)n[nH]c1=S [Compound 1b] | – | 88 ± 1.4% | 69.7 ± 2.4% | 81 ± 1.2% | 92 ± 2.1% | 77.7 ± 0.8% | high toxicity | – | – | –
3 | CC(=O)OC[C@H]1O[C@@H](Sc2nnc(COc3ccc4c(-c5ccccc5)cc(=O)oc4c3)n2C)[C@H](OC(C)=O)[C@@H](OC(C)=O)[C@H]1OC(C)=O [Compound 3, 4-Phenyl-7-((4-methyl-5-(1-(2,3,4,6-tetra-O-acetyl-β-D-galactopyranosyl)thio)-4H-1,2,4-triazol-3-yl)methoxy)-2H-chromen-2-one] | 211 to 213 °C | 9.8 ± 0.6% | 15.4 ± 0.5% | 11.1 ± 0.4% | 18.4 ± 0.7% | 23.2 ± 1.1% | – | – | – | –
4 | Cn1c(COc2ccc3c(-c4ccccc4)cc(=O)oc3c2)nnc1S[C@@H]1O[C@H](CO)[C@H](O)[C@H](O)[C@H]1O [Compound 7, 4-Phenyl-7-((4-methyl-5-(1-(β-D-galactopyranosyl)thio)-4H-1,2,4-triazol-3-yl)methoxy)-2H-chromen-2-one] | – | 14.3 ± 0.2% | 15.5 ± 1.1% | 16.6 ± 0.8% | 7.3 ± 0.3% | 35.7 ± 0.3% | – | – | – | –
5 | Cn1c(COc2ccc3c(-c4ccccc4)cc(=O)oc3c2)nnc1SCC(O)CO (centres unmarked) [Compound 13, 4-Phenyl-7-((5-((2,3-dihydroxypropyl)thio)-4-methyl-4H-1,2,4-triazol-3-yl)meth-oxy)-2H-chromen-2-one] | 170 to 171 °C | 51.9 ± 0.2% | 0% | 26.1 ± 0.3% | 2.8 ± 0.2% | 16.6 ± 0.7% | – | – | – | –
6 | O=c1cc(-c2ccccc2)c2ccc(O)cc2o1 [Compound 15, 7-hydroxy-4-phenyl-2H-chromen-2-one] | – | 36.8 ± 1.1% | 34.5 ± 0.4% | 89.3 ± 0.7% | 62.7 ± 1.5% | 46.1 ± 0.6% | – | 46 ± 2.2 µM | 88.3 ± 2.2 µM | –
7 | O=c1cc(-c2ccccc2)c2ccc(OCCCCI)cc2o1 [Compound 17, 7-(4-Iodobutoxy)-4-phenyl-2H-chromen-2-one] | 143 to 145 °C | 38.5 ± 1.2% | 7.7 ± 0.4% | 38.2 ± 0.7% | 50.8 ± 0.7% | 34.3 ± 0.3% | – | – | – | –
8 | [N-]=[N+]=NCCCCOc1ccc2c(-c3ccccc3)cc(=O)oc2c1 [Compound 19, 7-(4-Azidobutoxy)-4-phenyl-2H-chromen-2-one] | 114 to 116 °C | – | – | – | – | – | – | – | – | –
9 | CC(=O)O[C@@H]1[C@@H](OC(C)=O)[C@H](OCc2cn(CCCOc3ccc4c(-c5ccccc5)cc(=O)oc4c3)nn2)OC[C@H]1OC(C)=O [Compound 22] | 127 to 128 °C | 91.9 ± 0.8% | 97.1 ± 1.1% | 97.3 ± 0.8% | 90.6 ± 1.5% | 57.5 ± 0.5% | high toxicity | – | – | –
10 | CC(=O)OC[C@H]1O[C@@H](OCc2cn(CCCCOc3ccc4c(-c5ccccc5)cc(=O)oc4c3)nn2)[C@H](OC(C)=O)[C@@H](OC(C)=O)[C@H]1OC(C)=O [Compound 23] | 118 to 119 °C | 35.2 ± 0.3% | 28.6 ± 0.2% | 30.4 ± 0.7% | 0% | 13.6 ± 0.4% | – | – | – | –

More lines, main results first:

Row | melting point | Structure (SMILES) | cytotoxicity at 100 µM [1] | cytotoxicity at 100 µM [2] | cytotoxicity at 100 µM [3] | cytotoxicity at 100 µM [4] | cytotoxicity at 100 µM [5] | Toxicity on normal skin cells BJ-1 (in words) [6] | IC50 ([3]; HCT-116, MTT, 0.78–100 µM, ± SD) | IC50 [4] | IC50 ([2]; MDA-MB-231, MTT, 0.78–100 µM, ± SD)
11 | 132 to 133 °C | CC(=O)O[C@@H]1[C@@H](OC(C)=O)[C@H](Sc2nnc(COc3ccc4c(-c5ccccc5)cc(=O)oc4c3)n2C)OC[C@H]1OC(C)=O [Compound 4, 4-Phenyl-7-((4-methyl-5-(1-(2,3,4-tri-O-acetyl-β-D-xylopyranosyl)thio)-4H-1,2,4-triazol-3-yl)methoxy)-2H-chromen-2-one] | 17.1 ± 0.3% | 36.9 ± 1.2% | 15 ± 0.6% | 45.5 ± 0.6% | 24.9 ± 0.6% | – | – | – | –
12 | 151 to 152 °C | CCn1c(COc2ccc3c(-c4ccccc4)cc(=O)oc3c2)nnc1S[C@@H]1O[C@H](COC(C)=O)[C@H](OC(C)=O)[C@H](OC(C)=O)[C@H]1OC(C)=O [Compound 5, 4-Phenyl-7-((4-ethyl-5-(1-(2,3,4,6-tetra-O-acetyl-β-D-galactopyranosyl)thio)-4H-1,2,4-triazol-3-yl)methoxy)-2H-chromen-2-one] | 2.8 ± 0.2% | 18.5 ± 0.6% | 7.6 ± 0.2% | 24.9 ± 0.6% | 20.6 ± 0.3% | – | – | – | –
13 | 127 to 128 °C | CCn1c(COc2ccc3c(-c4ccccc4)cc(=O)oc3c2)nnc1S[C@@H]1OC[C@@H](OC(C)=O)[C@H](OC(C)=O)[C@H]1OC(C)=O [Compound 6, 4-Phenyl-7-((4-ethyl-5-(1-(2,3,4-tri-O-acetyl-β-D-xylopyranosyl)thio)-4H-1,2,4-triazol-3-yl)methoxy)-2H-chromen-2-one] | 14.3 ± 0.1% | 7.4 ± 0.3% | 18.9 ± 0.6% | 33.1 ± 0.2% | 30.1 ± 0.1% | – | – | – | –
14 | 184 to 185 °C | CCn1c(COc2ccc3c(-c4ccccc4)cc(=O)oc3c2)nnc1S[C@@H]1O[C@H](CO)[C@H](O)[C@H](O)[C@H]1O [Compound 9, 4-Phenyl-7-((4-ethyl-5-(1-(β-D-galactopyranosyl)thio)-4H-1,2,4-triazol-3-yl)meth-oxy)-2H-chromen-2-one] | 37.8 ± 0.3% | 27.7 ± 0.4% | 22.7 ± 0.9% | 20.4 ± 0.4% | 1.7 ± 0.1% | – | – | – | –
15 | 155 to 156 °C | Cn1c(COc2ccc3c(-c4ccccc4)cc(=O)oc3c2)nnc1SCCOCCO [Compound 11, 4-Phenyl-7-((5-((2-(2-hydroxyethoxy)ethyl)thio)-4-methyl-4H-1,2,4-triazol-3-yl)methoxy)-2H-chromen-2-one] | 86.7 ± 0.7% | 62.4 ± 0.7% | 91.7 ± 1.1% | 39.7 ± 0.8% | 19.1 ± 0.4% | high toxicity | – | – | –
16 | 152 to 153 °C | CCn1c(COc2ccc3c(-c4ccccc4)cc(=O)oc3c2)nnc1SCCOCCO [Compound 12, 4-Phenyl-7-((4-ethyl-5-((2-(2-hydroxyethoxy)ethyl)thio)-4H-1,2,4-triazol-3-yl)methoxy)-2H-chromen-2-one] | 97.6 ± 0.9% | 91.2 ± 0.8% | 84.4 ± 0.8% | 97.2 ± 1.3% | 92 ± 1.3% | high toxicity | – | – | –
17 | 180 to 181 °C | CCn1c(COc2ccc3c(-c4ccccc4)cc(=O)oc3c2)nnc1SCC(O)CO (centres unmarked) [Compound 14, 4-Phenyl-7-((5-((2,3-dihydroxypropyl)thio)-4-ethyl-4H-1,2,4-triazol-3-yl)methoxy)-2H-chromen-2-one] | 98.1 ± 0.3% | 97.8 ± 0.7% | 95.2 ± 0.9% | 90.5 ± 1.1% | 91.2 ± 2.1% | high toxicity | – | – | –
18 | 130 to 131 °C | O=c1cc(-c2ccccc2)c2ccc(OCCCI)cc2o1 [Compound 16, 7-(3-Iodopropoxy)-4-phenyl-2H-chromen-2-one] | 35.6 ± 0.8% | 88.3 ± 1.4% | 12.8 ± 1.1% | 91.2 ± 2.2% | 54.3 ± 0.4% | – | – | 26.2 ± 1.4 µM | 39.5 ± 0.9 µM
19 | 110 to 111 °C | [N-]=[N+]=NCCCOc1ccc2c(-c3ccccc3)cc(=O)oc2c1 [Compound 18, 7-(3-Azidopropoxy)-4-phenyl-2H-chromen-2-one] | – | – | – | – | – | – | – | – | –
20 | 190 to 191 °C | O=c1cc(-c2ccccc2)c2ccc(OCCCn3cc(CO[C@@H]4O[C@H](CO)[C@H](O)[C@H](O)[C@H]4O)nn3)cc2o1 [Compound 24] | 88.2 ± 1.1% | 97.7 ± 0.8% | 99.1 ± 0.8% | 97.6 ± 1.3% | 86.5 ± 0.9% | high toxicity | – | – | –
